According to article PMC11394167, “Purification and Identification of Novel Dipeptidyl Peptidase IV Inhibitory Peptides Derived from Bighead Carp (Hypophthalmichthys nobilis)” (Foods, 2024):
Read-outs that look alike come from different tables or passages of the source. Where a SMILES comes first, the peptide text is derived from it.

Assays:
[1] = molecular target: T1, DPP-IV (Homo sapiens, UniProt P27487); experiment: DPP-IV inhibition pattern (Lineweaver–Burk plots); type: biochemical; details: substrate 20, 15, 10, 5, 1 μM, peptide greater than IC50, less than IC50, and 0
T1 construct: purchased Abnova KA1311
Protocol: The pattern of DPP4 inhibition of synthetic peptides was further analyzed using Lineweaver–Burk plots. Images were plotted at different concentrations of substrates (20, 15, 10, 5, 1 μM) and peptide solution (concentration was greater than IC50, less than IC50, and 0) with 1/[S] as the X-value and 1/V as the Y-value. The mode of inhibition of DPP-IV by the synthetic peptide was determined based on the intercept of the Lineweaver–Burk curve.

[2] = molecular target: T1, DPP-IV; experiment: DPP-IV inhibitor screening assay (KA1311 kit, Gly-Pro-AMC); type: biochemical; details: synthetic peptides; 37 °C, 30 min; Gly-Pro-AMC substrate; fluorescence ex 350 nm / em 460 nm; mean ± standard deviation (n = 3); read-out: IC50 (DPP-IV inhibition)
Protocol: The DPP-IV inhibition rate and the corresponding IC50 of each component were determined using the DPP-IV inhibitor screening assay kit (KA1311, Abnova, Taipei, Taiwan, China). For each component, extracts were mixed with buffer solution at various concentrations (1 mg/mL, 0.1 mg/mL, 0.05 mg/mL, 0.01 mg/mL), DPP-IV, and the substrate (Gly-Pro-AMC solution) in 96-well plates. The reaction was conducted at the normal human body temperature of 37 °C for 30 min. Free AMC (7-amino-4-methylcoumarin) was quantified using a multifunctional fluorescent zymography assay, with excitation light at 350 nm and emission light at 460 nm, and expressed as fluorescence intensity. The positive control utilized was 1 μg/mL of […]. A standard curve for all inhibition rates was plotted, and the maximum half inhibitory concentration (IC50) value of each peptide was determined using GraphPad Prism 9.5.1. DPP-IV inhibition (%) = {(F initial activity − F sample)/F initial activity} × 100%(2)
The DPP-IV inhibitory activity assay was performed in three parallel groups, and IC50 data were expressed as the mean ± standard deviation (S.D.). Data were analyzed using SPSS 20.0 software (SPSS Inc., Chicago, IL, USA) for unifactorial and bifactorial analyses, and the significance of the data was indicated by p < 0.05.

[3] = side effects such as nausea; cited from earlier work
Source text: (§1) Diabetes is a chronic disease marked by high blood sugar levels and disruptions in fat and protein metabolism due to insulin resistance and deficiency. It is categorized into three types: type 1, type 2, and gestational diabetes. As reported by the International Diabetes Federation (IDF), approximately 537 million adults (aged 20–79 years) were living with diabetes in 2021, a number expected to rise to 700 million by 2045 [7]. Type 2 diabetes mellitus (T2DM) constitutes about 90% of these cases. Without treatment, T2DM can lead to severe complications such as coronary issues, retinopat ...

[4] = molecular target: T1, DPP-IV; details: cited from earlier work
Source text: as §1, with “... || The results of mass spectrometry identification guided the screening of peptide sequences based on certain criteria. […] In the current landscape of research aiming to identify DPP-IV inhi ...” for “...”

T1 sequence (P27487 whole entry): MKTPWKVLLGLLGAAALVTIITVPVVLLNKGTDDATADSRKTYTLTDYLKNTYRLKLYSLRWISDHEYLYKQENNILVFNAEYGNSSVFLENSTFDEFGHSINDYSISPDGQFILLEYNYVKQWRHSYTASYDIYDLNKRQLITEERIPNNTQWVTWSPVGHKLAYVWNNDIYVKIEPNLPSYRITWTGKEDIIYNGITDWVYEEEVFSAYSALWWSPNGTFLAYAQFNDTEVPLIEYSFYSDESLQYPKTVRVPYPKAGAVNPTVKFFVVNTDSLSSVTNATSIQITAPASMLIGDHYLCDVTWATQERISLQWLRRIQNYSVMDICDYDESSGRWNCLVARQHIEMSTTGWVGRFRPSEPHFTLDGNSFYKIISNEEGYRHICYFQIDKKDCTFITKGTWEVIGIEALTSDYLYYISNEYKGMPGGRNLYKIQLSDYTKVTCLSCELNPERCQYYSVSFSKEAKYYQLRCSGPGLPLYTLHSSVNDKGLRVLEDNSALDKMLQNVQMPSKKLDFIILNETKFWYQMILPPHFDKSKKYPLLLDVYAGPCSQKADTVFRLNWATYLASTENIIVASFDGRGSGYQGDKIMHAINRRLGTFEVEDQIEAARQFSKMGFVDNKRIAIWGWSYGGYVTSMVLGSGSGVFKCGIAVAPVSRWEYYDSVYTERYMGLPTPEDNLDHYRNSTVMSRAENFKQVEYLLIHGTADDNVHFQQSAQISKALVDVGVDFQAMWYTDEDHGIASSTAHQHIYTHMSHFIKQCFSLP

## CC(C)[C@H](NC(=O)[C@@H](N)Cc1ccccc1)C(=O)N[C@@H](C)C(=O)O [FVA] (H-Phe-Val-Ala-OH)
[1]
  effect on Km: increased Km
[2]
  IC50: 402 ± 5.28 nM

## CN(C)C(=N)N=C(N)N [Metformin]
[3]
  patients suffering from side effects: around 30%

## CC(C)C[C@H](NC(=O)CNC(=O)[C@@H]1CCCN1)C(=O)N[C@H](C(=O)NCC(=O)O)C(C)C [PGLVG] (H-PGLVG-OH)
[1]
  effect on Km: Km is increased
[2]
  IC50: 110 ± 43.1 nM

## O=C(CNC(=O)[C@@H]1CCCN1C(=O)[C@@H]1CCCN1)N[C@@H](Cc1ccccc1)C(=O)O [PPGF] (H-PPGF-OH)
[2]
  IC50: 4.63 ± 1.56 nM

## CC(C)[C@H](N)C(=O)N[C@@H](Cc1ccc(O)cc1)C(=O)N1CCC[C@H]1C(=O)O [VYP] (H-Val-Tyr-Pro-OH)
[2]
  IC50: 399 ± 47.4 nM

## GPAG [peptide (300.4 Da) from pig skin gelatin hydrolysate]
[4]; peptides from pig skin gelatin hydrolysate
  IC50: 41.9 µM

## IPSK
[4]; peptides from milk proteins
  DPP-IV inhibitory effect: DPP-IV inhibitory effects

## WGDEHIPGSPYH [previously reported peptide from silver carp]
[4]; from silver carp
  IC50: 350 µM

## YPFPGP [previously reported peptide extracted from milk]
[4]; extracted from milk
  IC50: 749 µM

## YYGYTGAFR [previously reported peptide from Atlantic salmon]
[4]; from Atlantic salmon
  IC50: 1100 µM
